Test results published in US20090215783A1, “COMPOSITION FOR INDUCTION OR INHIBITION OF STEM CELL DIFFERENTIATION” (CHOONGWAE PHARMA CORPORATION, priority 2006, published 2009).

Assays:
[1] = tested on: Mouse embryonic stem (ES) cells, TC1; experiment: Cardiomyogenesis modulating activity assay (alpha-MHC promoter EGFP, embryoid bodies, FACS/fluorescence microscopy); assay type: cell-based; conditions: embryoid bodies treated for 5 days, FACS
Method: a. Cell culture: Mouse embryonic stem (ES) cells, TC1 derived from 129/S6 strain were cultured on irradiated feeder layer in the culture medium which is high-glucose DMEM (Gibco) BRL, Germany) supplemented with 15% FBS (Hyclone), 0.1 mM beta-mercaptoethanol, […] sodium pyruvate, 1 mM L-glutamine and 1× non-essential amino acids.
b. Establishment of alpha-MHC stably transformed ES cell line: A construct (FIG. 8) containing 1.8 kb promoter sequence of the mouse alpha-MHC gene between EcoRI and SalI sites of pEGFP-1 (Clontech Laboratories, Inc, CA, USA) was linearized at XhoI site, and was introduced into mouse ES cells, TC1, using the Gene Pulser II (BioRad, MA). A selection medium containing G418 was applied for two weeks from 24 hours after electroporation. The selected ES cell clones were harvested and expanded on the feeder cell layer. The green fluorescence-expressing clones when differentiated into cardiomyocytes were used in this experiment.
c. Cardiomyogenesis modulating activity assay: Embryoid body (EB) was formed by hanging drop culture using about a number of 600 (six hundred) ES cells for two days and it was further expanded by culturing in suspension condition on a Petri-dish for another two days. Then each EB was plated on a well of 96 well culture plates. Test compounds were dissolved in DMSO and diluted with culture media (final 0.05% DMSO) and EB was treated with test compound for 5 days. Culture medium was changed every three days after plating. Expression level of EGFP was measured with FACS (Beckman). For FACS analysis, differentiating cells were dissociated with trypsin. For the determination of the extent of differentiation, EB was observed and photographed with an inverted fluorescence microscope (Zeiss, Germany). Number of beating EBs was counted under the microscope and recorded once daily.

[2] = tested on: human bone marrow derived-mesenchymal stem cells (hBMMSC); experiment: Osteogenesis modulating activity assay by test compound alone (ALP activity); assay type: cell-based; conditions: Homo sapiens, 168 h; hBMMSC, 20 μM test compound alone, six to seven days; read-out: Osteogenesis: fold change of ALP activity compared with DMSO control
Method: Cell culture: Human bone marrow derived-mesenchymal stem cells (hBMMSC) were isolated from normal subjects.
Osteogenesis modulating activity assay by test compound alone: hBMMSC were cultivated in the culture medium and cells were seeded into 96-well culture plates and test compounds were dissolved in DMSO and diluted with culture media (final 0.01% DMSO) and added into the media (final concentration of test compound was 20 μM) and cultured in the CO2 incubator (37° C., 5% CO2). Culture medium was changed every two days with fresh one and compound was treated again whenever medium was changed. Six to seven days after incubation, Alkaline phosphatase activity of cell lysates was measured by colorimetry. For the determination of mineralization within the cells, Von Kossa staining or Alizarin Red S assay was performed 10-14 days after incubation.

## CN1CC(=O)N2C(Cc3ccc(Oc4ccccc4)cc3)C(=O)N(Cc3cccc4ccccc34)CC2N1C(=O)NCc1ccccc1 (stereo not shown) [#1]
[1]
  Cardiomyogenesis: fold change of EGFP expression level compared with DMSO control: 1.21 fold
[2]
  fold induction at 20 µM: 0.36

## CC(C)C[C@H]1C(=O)N(CC(=O)N(Cc2ccccc2)c2ccccc2)CC2N1C(=O)CN(C)N2C(=O)NCc1ccccc1 (stereo partly shown) [#2]
[1]
  Cardiomyogenesis: fold change of EGFP expression level compared with DMSO control: 1.11 fold
[2]
  fold induction at 20 µM: 1.09

## CC(C)C[C@H]1C(=O)N(CCOc2ccccc2N)CC2N1C(=O)CN(C)N2C(=O)NCc1ccccc1 (stereo partly shown) [#3]
[1]
  Cardiomyogenesis: fold change of EGFP expression level compared with DMSO control: 1.25 fold
[2]
  fold induction at 20 µM: 1.29

## CC(C)C[C@H]1C(=O)N(CC(=O)N(c2ccccc2)c2cccc(Cl)c2)C[C@H]2N1C(=O)CN(C)N2C(=O)NCc1ccccc1 [#4]
[1]
  Cardiomyogenesis: fold change of EGFP expression level compared with DMSO control: 0.40 fold
[2]
  fold induction at 20 µM: 0.59

## CC(C)C[C@H]1C(=O)N(CC(=O)N2c3ccccc3Oc3ccccc32)C[C@H]2N1C(=O)CN(C)N2C(=O)NCc1ccccc1 [#5]
[1]
  Cardiomyogenesis: fold change of EGFP expression level compared with DMSO control: 0.36 fold
[2]
  fold induction at 20 µM: 0.29

## CN1CC(=O)N2C(CN(Cc3ccc(Cl)c(Cl)c3)C(=O)[C@H]2Cc2ccc(O)cc2)N1C(=O)NCc1cccnc1 (stereo partly shown) [#6]
[1]
  Cardiomyogenesis: fold change of EGFP expression level compared with DMSO control: 0.47 fold
[2]
  fold induction at 20 µM: 0.51

## CN1CC(=O)N2[C@@H](Cc3ccc(O)c(C(C)(C)C)c3)C(=O)N(Cc3cccc4cccnc34)C[C@@H]2N1C(=O)NCc1ccccc1 [#7]
[1]
  Cardiomyogenesis: fold change of EGFP expression level compared with DMSO control: 1.22 fold
[2]
  fold induction at 20 µM: 0.51

## CN1CC(=O)N2[C@@H](CN(Cc3cccc(Cl)c3)C(=O)[C@H]2c2ccc(O)cc2)N1C(=O)NCc1ccccc1 [#8]
[1]
  Cardiomyogenesis: fold change of EGFP expression level compared with DMSO control: 0.65 fold
[2]
  fold induction at 20 µM: 0.55

## CN1CC(=O)N2C(CN(Cc3ccc(F)cc3)C(=O)[C@@H]2Cc2ccc(O)cc2)N1C(=O)NCc1ccccc1 (stereo partly shown) [#9]
[1]
  Cardiomyogenesis: fold change of EGFP expression level compared with DMSO control: 1.59 fold
[2]
  fold induction at 20 µM: 0.24

## CN1CC(=O)N2[C@@H](Cc3ccc(O)cc3)C(=O)N(Cc3cccc4[nH]ncc34)C[C@@H]2N1C(=O)NCc1ccccc1 [#11]
[1]
  Cardiomyogenesis: fold change of EGFP expression level compared with DMSO control: 0.07 fold
[2]
  fold induction at 20 µM: 0.3

## C#CCNC(=O)N1[C@H]2CN(Cc3cccc4ccccc34)C(=O)[C@H](Cc3ccc(O)cc3)N2C(=O)CN1C [#12]
[1]
  Cardiomyogenesis: fold change of EGFP expression level compared with DMSO control: 1.27 fold
[2]
  fold induction at 20 µM: 0.76

## C=CCN1CC(=O)N2C(Cc3ccc(O)cc3)C(=O)N(Cc3ccc(F)cc3F)C[C@H]2N1C(=O)NCc1ccccc1 (stereo partly shown) [#13]
[1]
  Cardiomyogenesis: fold change of EGFP expression level compared with DMSO control: 1.02 fold
[2]
  fold induction at 20 µM: 0.47

## C=CCN1CC(=O)N2[C@@H](Cc3ccc(O)cc3)C(=O)N(Cc3ccc(F)c4scnc34)C[C@@H]2N1C(=O)NCc1ccccc1F [#14]
[2]
  fold induction at 20 µM: 0.29

## CC(C)CN1C[C@H]2N(C(=O)CN(C)N2C(=O)NCc2ccccc2)[C@@H](Cc2ccc(O)cc2)C1=O [#15]
[1]
  Cardiomyogenesis: fold change of EGFP expression level compared with DMSO control: 0.41 fold
[2]
  fold induction at 20 µM: 1.12

## CC(C)CN1C[C@H]2N(C(=O)CN(C)N2C(=O)NCc2ccccc2)[C@@H](CC(=O)O)C1=O [#16]
[1]
  Cardiomyogenesis: fold change of EGFP expression level compared with DMSO control: 1.42 fold
[2]
  fold induction at 20 µM: 0.97

## CC(C)CN1C[C@H]2N(C(=O)CN(C)N2C(=O)NCc2ccccc2)[C@@H](CCC(=O)O)C1=O [#17]
[1]
  Cardiomyogenesis: fold change of EGFP expression level compared with DMSO control: 2.52 fold
[2]
  fold induction at 20 µM: 1.29

## CC(C)CN1C[C@H]2N(C(=O)CN(C)N2C(=O)NCc2ccccc2)[C@@H](c2ccccc2)C1=O [#18]
[1]
  Cardiomyogenesis: fold change of EGFP expression level compared with DMSO control: 2.01 fold
[2]
  fold induction at 20 µM: 0.93

## COc1ccc(CN2CC3N(C(=O)CN(C)N3C(=O)NCc3ccccc3)C(Cc3ccc(O)cc3)C2=O)cc1 (stereo not shown) [#19]
[1]
  Cardiomyogenesis: fold change of EGFP expression level compared with DMSO control: 3.03 fold
[2]
  fold induction at 20 µM: 0.7

## COc1ccc(CN2C[C@H]3N(C(=O)CN(C)N3C(=O)NCc3ccccc3)[C@@H](CC(C)C)C2=O)cc1 [#20]
[1]
  Cardiomyogenesis: fold change of EGFP expression level compared with DMSO control: 2.17 fold
[2]
  fold induction at 20 µM: 1.06

## COc1ccc(CN2C[C@H]3N(C(=O)CN(C)N3C(=O)NCc3ccccc3)[C@@H](C(C)C)C2=O)cc1 [#21]
[1]
  Cardiomyogenesis: fold change of EGFP expression level compared with DMSO control: 0.62 fold
[2]
  fold induction at 20 µM: 1.21

## COc1ccc(CN2C[C@H]3N(C(=O)CN(C)N3C(=O)NCc3ccccc3)[C@@H](Cc3ccccc3)C2=O)cc1 [#22]
[1]
  Cardiomyogenesis: fold change of EGFP expression level compared with DMSO control: 1.16 fold
[2]
  fold induction at 20 µM: 0.7

## CCC(C)[C@H]1C(=O)N(Cc2ccc(OC)cc2)C[C@H]2N1C(=O)CN(C)N2C(=O)NCc1ccccc1 (stereo partly shown) [#23]
[1]
  Cardiomyogenesis: fold change of EGFP expression level compared with DMSO control: 1.69 fold
[2]
  fold induction at 20 µM: 0.86

## CCC[C@H]1C(=O)N(Cc2ccc(OC)cc2)C[C@H]2N1C(=O)CN(C)N2C(=O)NCc1ccccc1 [#24]
[1]
  Cardiomyogenesis: fold change of EGFP expression level compared with DMSO control: 1.57 fold
[2]
  fold induction at 20 µM: 0.85

## COc1ccc(CN2C[C@H]3N(C(=O)CN(C)N3C(=O)NCc3ccccc3)[C@@H](c3ccccc3)C2=O)cc1 [#25]
[1]
  Cardiomyogenesis: fold change of EGFP expression level compared with DMSO control: 1.78 fold
[2]
  fold induction at 20 µM: 0.6

## C=CCOC(=O)NCCC[C@@H]1C(=O)N(Cc2ccc(OC)cc2)CC2N1C(=O)CN(C)N2C(=O)NCc1ccccc1 (stereo partly shown) [#26]
[1]
  Cardiomyogenesis: fold change of EGFP expression level compared with DMSO control: 1.74 fold
[2]
  fold induction at 20 µM: 1.01

## CN1CC(=O)N2C(Cc3ccc(OCc4ccccc4)cc3)C(=O)N(CCCc3ccccc3)CC2N1C(=O)NCc1ccccc1 (stereo not shown) [#27]
[1]
  Cardiomyogenesis: fold change of EGFP expression level compared with DMSO control: 0.52 fold
[2]
  fold induction at 20 µM: 0.96

## CN1CC(=O)N2[C@@H](CC3CCCCC3)C(=O)N(CCCc3ccccc3)C[C@@H]2N1C(=O)NCc1ccccc1 [#28]
[1]
  Cardiomyogenesis: fold change of EGFP expression level compared with DMSO control: 1.23 fold
[2]
  fold induction at 20 µM: 0.26

## CCCCNC(=O)N1[C@H]2CN([C@@H](C)c3ccccc3)C(=O)[C@H](Cc3ccc(O)cc3)N2C(=O)CN1Cc1ccc(C)cc1 [#45]
[2]
  fold induction at 20 µM: 1.08

## CCCCNC(=O)N1[C@H]2CN([C@@H](C)c3ccccc3)C(=O)[C@H](Cc3ccccc3)N2C(=O)CN1Cc1ccc(C)cc1 [#47]
[1]
  Cardiomyogenesis: fold change of EGFP expression level compared with DMSO control: 2.32 fold

## CCCCNC(=O)N1[C@H]2CN([C@@H](C)c3ccccc3)C(=O)[C@H](CCC)N2C(=O)CN1Cc1ccc(C)cc1 [#48]
[1]
  Cardiomyogenesis: fold change of EGFP expression level compared with DMSO control: 1.02 fold

## CCCCNC(=O)N1[C@H]2CN([C@@H](C)c3ccccc3)C(=O)[C@H](CC(=O)O)N2C(=O)CN1Cc1ccc(C)cc1 [#49]
[1]
  Cardiomyogenesis: fold change of EGFP expression level compared with DMSO control: 1.14 fold

## CCCCNC(=O)N1[C@H]2CN([C@@H](C)c3ccccc3)C(=O)[C@H](CCC(=O)O)N2C(=O)CN1Cc1ccc(C)cc1 [#50]
[1]
  Cardiomyogenesis: fold change of EGFP expression level compared with DMSO control: 0.26 fold

## C#CCN1CC(=O)N2C(Cc3ccc(Cl)cc3)C(=O)N(CCCCCCC)C[C@@H]2N1C(=O)NCc1ccccc1 (stereo partly shown) [#52]
[1]
  Cardiomyogenesis: fold change of EGFP expression level compared with DMSO control: 1.99 fold

## O=C1[C@H](Cc2ccc(O)cc2)N2C(=O)CN(Cc3ccccc3)N(C(=O)NCc3ccccc3)C2CN1Cc1cccc(F)c1 (stereo partly shown) [#53]
[1]
  Cardiomyogenesis: fold change of EGFP expression level compared with DMSO control: 1.95 fold

## CC(C)C[C@H]1C(=O)N(Cc2cccc(F)c2)C[C@H]2N1C(=O)CN(Cc1ccccc1)N2C(=O)NCc1ccccc1 [#54]
[1]
  Cardiomyogenesis: fold change of EGFP expression level compared with DMSO control: 1.42 fold

## O=C1[C@H](Cc2ccccc2)N2C(=O)CN(Cc3ccccc3)N(C(=O)NCc3ccccc3)[C@H]2CN1Cc1cccc(F)c1 [#56]
[1]
  Cardiomyogenesis: fold change of EGFP expression level compared with DMSO control: 1.08 fold

## CCC[C@H]1C(=O)N(Cc2cccc(F)c2)C[C@H]2N1C(=O)CN(Cc1ccccc1)N2C(=O)NCc1ccccc1 [#58]
[1]
  Cardiomyogenesis: fold change of EGFP expression level compared with DMSO control: 1.91 fold

## O=C(O)C[C@H]1C(=O)N(Cc2cccc(F)c2)C[C@H]2N1C(=O)CN(Cc1ccccc1)N2C(=O)NCc1ccccc1 [#59]
[1]
  Cardiomyogenesis: fold change of EGFP expression level compared with DMSO control: 0.48 fold

## O=C1[C@H](c2ccccc2)N2C(=O)CN(Cc3ccccc3)N(C(=O)NCc3ccccc3)[C@H]2CN1Cc1cccc(F)c1 [#60]
[1]
  Cardiomyogenesis: fold change of EGFP expression level compared with DMSO control: 1.23 fold

## O=C1[C@@H](Cc2ccccc2)N2C(=O)CN(Cc3ccc(F)cc3)N(C(=O)NCc3ccccc3)[C@@H]2CN1Cc1cccc(C(F)(F)F)c1 [#61]
[1]
  Cardiomyogenesis: fold change of EGFP expression level compared with DMSO control: 1.06 fold

## O=C1[C@H](COCc2ccccc2)N2C(=O)CN(Cc3ccc(F)cc3)N(C(=O)NCc3ccccc3)C2CN1Cc1cccc(C(F)(F)F)c1 (stereo partly shown) [#62]
[1]
  Cardiomyogenesis: fold change of EGFP expression level compared with DMSO control: 0.89 fold
